Data: patent US12649750B2, “Macrocyclic compounds, compositions, and methods of using thereof” (Sionna Therapeutics Inc., priority 2022, dated 2026)

What was measured:
CFTR = target: T1, CFTR (Homo sapiens, UniProt P13569, DEL508-508); test: TECC24 AUC fold over DMSO @10 μM, CFTR-mediated transepithelial chloride transport in CF-HBE cells; assay type: cell-based; conditions: test agent AUC divided by DMSO vehicle AUC, primary CF-HBE cells, ΔF508 homozygous donor, 48 hours incubation
T1 construct: Primary human bronchial epithelial cells from a ΔF508 homozygous CF donor; host or cells: primary human bronchial epithelial cells (CF-HBE), ΔF508 homozygous donor
Procedure, shortened: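 Primary ΔF508-homozygous CF bronchial epithelial cells on inserts were incubated 48 h at 36.5 °C with compound in IL-13-containing medium. VT and TEER were then recorded in current-clamp mode (pH 7.4 HEPES bath) with benzamil 10 μM, forskolin 10 μM, then CFTR inhibitor-172 20 μM. The IEQ AUC between forskolin and inhibitor was divided by vehicle AUC.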

NBD1 = target: T2, NBD1 (Homo sapiens, UniProt P13569); test: Aggregation analysis using differential static light scattering (DSLS), thermal stability of NBD1 (ΔTagg); assay type: binding; conditions: ΔTagg versus DMSO control, NBD1 0.2 mg/ml
T2 construct: Purified recombinant NBD1 was produced using previously described methods; made in house
Procedure, shortened: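 Thermal aggregation of purified NBD1 was followed by static light scattering during a 1° C./min ramp to 70° C. Protein was at 0.2 mg/ml with 2 mM ATP at pH7.6. Each compound's Tagg was referenced to DMSO controls.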

T2 sequence (P13569 423-646 limits assumed): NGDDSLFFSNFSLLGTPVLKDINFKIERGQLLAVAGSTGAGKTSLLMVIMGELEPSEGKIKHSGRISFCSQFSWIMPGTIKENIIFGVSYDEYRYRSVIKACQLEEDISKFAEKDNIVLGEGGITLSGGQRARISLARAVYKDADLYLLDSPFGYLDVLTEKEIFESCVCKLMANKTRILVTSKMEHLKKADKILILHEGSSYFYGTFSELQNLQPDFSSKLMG
T1 sequence (P13569 with tags, fused parts or gaps DEL508-508): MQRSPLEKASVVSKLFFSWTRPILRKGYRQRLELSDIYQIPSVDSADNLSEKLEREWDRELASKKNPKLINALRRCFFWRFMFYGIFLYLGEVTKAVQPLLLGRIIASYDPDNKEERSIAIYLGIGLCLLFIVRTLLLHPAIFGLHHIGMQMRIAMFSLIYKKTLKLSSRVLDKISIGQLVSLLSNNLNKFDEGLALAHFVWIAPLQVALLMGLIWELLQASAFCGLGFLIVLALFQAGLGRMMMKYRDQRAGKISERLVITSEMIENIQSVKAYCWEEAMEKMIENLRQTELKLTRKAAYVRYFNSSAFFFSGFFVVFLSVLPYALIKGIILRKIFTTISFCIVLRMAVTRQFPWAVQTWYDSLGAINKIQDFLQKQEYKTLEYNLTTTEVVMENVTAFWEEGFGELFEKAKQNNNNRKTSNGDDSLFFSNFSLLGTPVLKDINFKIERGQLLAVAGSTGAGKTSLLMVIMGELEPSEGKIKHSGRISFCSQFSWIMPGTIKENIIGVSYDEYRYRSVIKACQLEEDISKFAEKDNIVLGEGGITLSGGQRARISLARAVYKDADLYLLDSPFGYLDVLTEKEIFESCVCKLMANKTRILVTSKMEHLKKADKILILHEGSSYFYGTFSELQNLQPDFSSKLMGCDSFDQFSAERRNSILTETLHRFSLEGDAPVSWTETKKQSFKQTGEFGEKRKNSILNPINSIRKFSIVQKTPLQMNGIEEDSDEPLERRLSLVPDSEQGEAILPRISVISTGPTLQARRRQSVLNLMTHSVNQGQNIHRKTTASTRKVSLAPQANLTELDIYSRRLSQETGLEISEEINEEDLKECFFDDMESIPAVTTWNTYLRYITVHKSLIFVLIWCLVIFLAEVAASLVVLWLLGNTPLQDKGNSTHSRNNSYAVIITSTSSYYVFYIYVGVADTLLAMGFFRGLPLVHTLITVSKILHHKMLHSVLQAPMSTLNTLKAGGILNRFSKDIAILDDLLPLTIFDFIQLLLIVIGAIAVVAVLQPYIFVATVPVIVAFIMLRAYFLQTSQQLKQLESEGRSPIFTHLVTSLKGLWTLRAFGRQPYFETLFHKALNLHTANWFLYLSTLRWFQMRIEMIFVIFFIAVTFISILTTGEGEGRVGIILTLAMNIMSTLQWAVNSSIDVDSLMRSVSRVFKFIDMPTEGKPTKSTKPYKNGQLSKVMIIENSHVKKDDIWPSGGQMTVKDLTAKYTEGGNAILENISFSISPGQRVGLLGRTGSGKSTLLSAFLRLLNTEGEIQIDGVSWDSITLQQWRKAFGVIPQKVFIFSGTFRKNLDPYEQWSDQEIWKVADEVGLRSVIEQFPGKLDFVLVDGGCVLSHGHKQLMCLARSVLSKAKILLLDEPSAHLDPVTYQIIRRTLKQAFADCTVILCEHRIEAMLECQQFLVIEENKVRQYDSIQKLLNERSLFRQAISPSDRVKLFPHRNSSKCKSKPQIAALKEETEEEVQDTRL

Compound	TECC (AUC, 10 μM) (CFTR)	DSLS 3D (100 μM ΔT) (NBD1)
O=C(O)CCc1cccc(C2NC(=O)CCCS(=O)(=O)CCc3c(c(F)cc4[nH]ccc34)Oc3ccc(F)c(c3)-c3ncc2[nH]3)c1 (single isomer, unassigned) [Compound 82, 3-[3-[22,28-difluoro-8,12,12-trioxo-24-oxa-12lambda6-thia-3,7,19,30-tetrazapentacyclo [23.3.1.12,5.015,23.016,20]-triaconta-1(29),2,4,15,17,20,22,25,27-nonaen-6-yl]phenyl]propanoic acid]	A (a TECC value less than 12 is marked “A”)	C (a value greater than 10 °C and less than or equal to 25 °C is marked “C”)
C[C@@H](Cc1cccc(C2(C)CCCC(C)(C)CS(=O)(=O)CCc3c(c(F)cc4[nH]ccc34)Oc3ccc(F)c(c3)-c3nc2c[nH]3)c1)C(=O)O (single isomer, unassigned) [Compound 129B]	A (a TECC value less than 12 is marked “A”)	C (a value greater than 10 °C and less than or equal to 25 °C is marked “C”)
CC(CC(=O)O)c1cccc(C2(C)CCOC(C)(C)CS(=O)(=O)CCc3c(c(F)cc4[nH]ccc34)Oc3ccc(F)c(c3)-c3nc2nn3C)c1 (single isomer, unassigned) [Compound 72B, 3-[3-(22,28-difluoro-3,6,10,10-tetramethyl-12,12-dioxo-9,24-dioxa-12lambda6-thia-3,4,19,30-tetrazapentacyclo-[23.3.1.12,5.015,23.016,20]triaconta-1(29),2(30),4,15,17,20,22,25,27-nonaen-6-yl)phenyl]-butanoic Acid]	A (a TECC value less than 12 is marked “A”)	A (an ΔTagg value less than or equal to 5 °C is marked “A”)
Cn1nc2nc1-c1cc(ccc1F)[S+]([O-])c1c(F)cc3[nH]ccc3c1CCS(=O)(=O)CC(C)(C)CCC[C@]2(C)c1cccc(CC(=O)O)c1 (single isomer, unassigned) [Compound 209A]	A (a TECC value less than 12 is marked “A”)	B (a value above 5 °C and less than or equal to 10 °C is marked “B”)
Cn1nc2nc1-c1cc(ccn1)Oc1c(F)c(F)c3[nH]ccc3c1CCS(=O)(=O)CC(C)(C)CCC[C@]2(C)c1cccc(CC(=O)O)c1 [Compound 257, 2-[3-[(6R)-21,22-difluoro-3,6,10,10-tetramethyl-12,12-dioxo-24-oxa-12λ6-thia-3,4,19,28,30-pentazapentacyclo[23.3.1.12,5.015,23.016,20]triaconta-1(29),2(30),4,15,17,20,22,25,27-nonaen-6-yl]phenyl]acetic Acid]	B (a value between 12-20 is marked “B”)	C (a value greater than 10 °C and less than or equal to 25 °C is marked “C”)
CC(Cc1cccc(C2(C#N)CCCC(C)(C)CS(=O)(=O)CCc3c(c(F)cc4[nH]ccc34)Oc3ccc(F)c(c3)-c3nc2nn3C)c1)C(=O)O (single isomer, unassigned) [Compound 20A, 3-[3-[6-cyano-22,28-difluoro-3,10,10-trimethyl-12,12-dioxo-24-oxa-12lambda6-thia-3,4,19,30-tetrazapentacyclo[23.3.1.12,5.015,23.016,20]triaconta-1(29),2(30),4,15,17,20,22,25,27-nonaen-6-yl]phenyl]-2-methyl-propanoic Acid]	C (a value between 20 and 80 is marked “C”)	C (a value greater than 10 °C and less than or equal to 25 °C is marked “C”)
Cn1nc2nc1-c1cc(ccc1F)Oc1c(F)cc3[nH]ccc3c1CCS(=O)(=O)CC(C)(C)CCCC2(C)c1cccc(CC(O)C(=O)O)c1 (single isomer, unassigned) [Compound 134B, 3-[3-(22,28-Difluoro-3,6,10,10-tetramethyl-12,12-dioxo-24-oxa-12λ6-thia-3,4,19,30-tetrazapentacyclo-[23.3.1.12,5.015,23.016,20]-triaconta-1(29),2(30),4,15,17,20,22,25,27-nonaen-6-yl)phenyl]-2-hydroxy-propanoic Acid]	A (a TECC value less than 12 is marked “A”)	A (an ΔTagg value less than or equal to 5 °C is marked “A”)
C[C@@H](Cc1cccc(C2(C)CCCC(C)(C)CS(=O)(=O)CCc3c(c(F)cc4[nH]ccc34)Oc3ccc(F)c(c3)-c3nc2nn3C)c1)C(N)=O (single isomer, unassigned) [Compound 158]	A (a TECC value less than 12 is marked “A”)	C (a value greater than 10 °C and less than or equal to 25 °C is marked “C”)
C[C@@H](Cc1cccc([C@@]2(C)CCCC(C)(C)CS(=O)(=O)CCc3c(c(F)c(F)c4[nH]ccc34)[S+]([O-])c3ccnc(c3)-c3nc2nn3C)c1)C(=O)O (stereo partly drawn) [Compound 267, (2S)-3-[3-[(6R)-21,22-Difluoro-3,6,10,10-tetramethyl-12,12,24-trioxo-12λ6,24λ4-dithia-3,4,19,28,30-pentazapentacyclo[23.3.1.12,5.015,23.016,20]triaconta-1(29),2(30),4,15,17,20,22,25,27-nonaen-6-yl]phenyl]-2-methyl-propanoic Acid]	C (a value between 20 and 80 is marked “C”)	C (a value greater than 10 °C and less than or equal to 25 °C is marked “C”)
O=C1CCCS(=O)(=O)CCc2c(c(F)cc3[nH]ccc23)Oc2ccc(F)c(c2)-c2ncc([nH]2)C(c2ccccc2)N1 (single isomer, unassigned) [Compound 83, 22,28-difluoro-12,12-dioxo-6-phenyl-24-oxa-12lambda6-thia-3,7,19,30-tetrazapentacyclo [23.3.1.12,5.015,23.016,20]-triaconta-1(29),2,4,15,17,20,22,25,27-nonaen-8-one]	A (a TECC value less than 12 is marked “A”)	B (a value above 5 °C and less than or equal to 10 °C is marked “B”)
COC(=O)CCc1cccc(C2(C)CCCC(C)(C)CS(=O)(=O)CCc3c(c(F)cc4[nH]ccc34)C(=O)c3ccc(F)c(c3)-c3nc2nn3C)c1 (single isomer, unassigned) [Compound 31A, methyl 3-[3-[22,28-difluoro-3,6,10,10-tetramethyl-12,12,24-trioxo-12lambda6-thia-3,4,19,30-tetrazapentacyclo[23.3.1.12,5.015,23.016,20]triaconta-1(29),2(30),4,15,17,20,22,25,27-nonaen-6-yl]phenyl]propanoate]	C (a value between 20 and 80 is marked “C”)	B (a value above 5 °C and less than or equal to 10 °C is marked “B”)
C/C(C(=O)O)=C(/C)c1cccc(C2(C)CCCC(C)(C)CS(=O)(=O)CCc3c(c(F)cc4[nH]ccc34)Oc3ccc(F)c(c3)-c3nc2nn3C)c1 (stereo not drawn) [Compound 155, (E)-3-[3-(22,28-Difluoro-3,6,10,10-tetramethyl-12,12-dioxo-24-oxa-12λ6-thia-3,4,19,30-tetrazapentacyclo[23.3.1.12,5.015,23.016,20]triaconta-1(29),2(30),4,15,17,20,22,25,27-nonaen-6-yl)phenyl]-2-methyl-but-2-enoic Acid]	A (a TECC value less than 12 is marked “A”)	C (a value greater than 10 °C and less than or equal to 25 °C is marked “C”)
